Here are results for 22 molecules from US20230036854A1, “HETEROCYCLIC SPIRO-COMPOUNDS AS AM2 RECEPTOR INHIBITORS” (THE UNIVERSITY OF SHEFFIELD, priority 2018, published 2023).

Each structure is given as a SMILES string.

For this test, the target named is T1, AM2 receptor (1321N1 cells transfected with CALCRL+RAMP3) (Homo sapiens, UniProt O60896+Q16602).
T1 construct: host or cells: 1321N1 cells
T1 sequence (Q16602 23-461): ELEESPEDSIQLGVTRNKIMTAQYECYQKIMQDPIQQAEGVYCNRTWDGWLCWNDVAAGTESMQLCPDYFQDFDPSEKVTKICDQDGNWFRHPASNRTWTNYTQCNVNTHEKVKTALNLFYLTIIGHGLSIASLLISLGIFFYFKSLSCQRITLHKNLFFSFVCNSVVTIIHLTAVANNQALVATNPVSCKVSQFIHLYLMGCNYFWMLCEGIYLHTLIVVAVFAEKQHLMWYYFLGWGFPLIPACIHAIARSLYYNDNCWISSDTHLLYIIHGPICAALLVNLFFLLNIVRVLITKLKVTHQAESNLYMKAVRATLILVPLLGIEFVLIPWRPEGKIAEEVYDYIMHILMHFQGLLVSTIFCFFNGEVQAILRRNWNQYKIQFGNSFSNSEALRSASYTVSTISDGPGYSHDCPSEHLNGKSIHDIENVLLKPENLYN
T1 sequence (O60896 24-148): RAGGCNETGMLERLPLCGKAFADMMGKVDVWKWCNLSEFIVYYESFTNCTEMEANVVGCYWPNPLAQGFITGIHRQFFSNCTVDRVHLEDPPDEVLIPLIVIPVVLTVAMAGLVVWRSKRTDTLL
Put plainly: AM2 receptor inhibition, LANCE cAMP agonist-antagonist competition assay. Type of test: cell-based. Conditions: inhibition of AM induced cAMP activation, read-out: AM2 D2 protocol: pIC50 (converted). The essentials:
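cAMP was quantified by LANCE TR-FRET after an EC50 challenge with adrenomedullin (15 min, room temperature) in CALCRL+RAMP3-transfected 1321N1 cells (2500/well) that had first been exposed to compound for 30 min. Buffer was pH 7.4 HBSS with HEPES and BSA. Forskolin defined 100% stimulation and vehicle 0%.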
A general note: TR-FRET usually uses a lanthanide donor and a delayed reading to cut background.
Take `CNCc1ccccc1CN(CC(=O)Nc1ccc2c(c1)CC1(C2)C(=O)Nc2ncccc21)C(=O)C1(C)CCN(C(=O)N2CCCC2)CC1` (stereo not shown) [Example 51, 4-Methyl-N-[[2-(methylaminomethyl)phenyl]methyl]-N-[2-oxo-2-[(2-oxospiro[1H-pyrrolo[2,3-b]pyridine-3,2′-indane]-5′-yl)amino]ethyl]-1-(pyrrolidine-1-carbonyl)piperidine-4-carboxamide]: the IC50 is 2.34 nM.
In the case of `CNCc1ccccc1CN(CC(=O)Nc1ccc2c(c1)C[C@@]1(C2)C(=O)Nc2ncccc21)C(=O)C1(C)CCN(C(=O)N(C)C)CC1` [Example 53, (R)—N1,N1,4-Trimethyl-N4-(2-((methylamino)methyl)benzyl)-N4-(2-oxo-2-((2′-oxo-1,1′,2′,3-tetrahydrospiro[indene-2,3′-pyrrolo[2,3-b]pyridin]-5-yl)amino)ethyl)piperidine-1,4-dicarboxamide], the IC50 is 14.1 nM.
Consider `CNCc1ccccc1CN(CC(=O)Nc1ccc2c(c1)C[C@@]1(C2)C(=O)Nc2ncccc21)C(=O)C1(C)CCN(C(=O)N2CCC2)CC1` [Example 54, (R)-1-(Azetidine-1-carbonyl)-4-methyl-N-(2-((methylamino)methyl)benzyl)-N-(2-oxo-2-((2′-oxo-1,1′,2′,3-tetrahydrospiro[indene-2,3′-pyrrolo[2,3-b]pyridin]-5-yl)amino)ethyl)piperidine-4-carboxamide], for which the IC50 is 3.8 nM.
With `CNCc1ccccc1CN(CC(=O)Nc1ccc2c(c1)C[C@@]1(C2)C(=O)Nc2ncccc21)C(=O)C1(C)CCN(C(=O)N2CCNCC2)CC1` [Example 56, (R)-4-Methyl-N-(2-((methylamino)methyl)benzyl)-N-(2-oxo-2-((2′-oxo-1,1′,2′,3-tetrahydrospiro[indene-2,3′-pyrrolo[2,3-b]pyridin]-5-yl)amino)ethyl)-1-(piperazine-1-carbonyl)piperidine-4-carboxamide], the IC50 is 13.2 nM.
With `CNCc1ccccc1CN(CC(=O)Nc1ccc2c(c1)C[C@@]1(C2)C(=O)Nc2ncccc21)C(=O)C1(C)CCN(C(=O)N2CCCC2)CC1` [Example 57, (R)-4-Methyl-N-(2-((methylamino)methyl)benzyl)-N-(2-oxo-2-((2′-oxo-1,1′,2′,3-tetrahydrospiro[indene-2,3′-pyrrolo[2,3-b]pyridin]-5-yl)amino)ethyl)-1-(pyrrolidine-1-carbonyl)piperidine-4-carboxamide], the IC50 was 3.63 nM.
Consider `CNCc1ccccc1CN(CC(=O)Nc1ccc2c(c1)C[C@@]1(C2)C(=O)Nc2ncccc21)C(=O)C1(C)CCN(C(C)=N)CC1` [Example 58, (R)-1-(1-Iminoethyl)-4-methyl-N-(2-((methylamino)methyl)benzyl)-N-(2-oxo-2-((2′-oxo-1,1′,2′,3-tetrahydrospiro[indene-2,3′-pyrrolo[2,3-b]pyridin]-5-yl)amino)ethyl)piperidine-4-carboxamide], for which the IC50 was 2.34 nM.
As for `CNCc1ccccc1CN(CC(=O)Nc1ccc2c(c1)C[C@@]1(C2)C(=O)Nc2ncccc21)C(=O)C1(C)CCN(c2cccnn2)CC1` [Example 59, (R)-4-Methyl-N-(2-((methylamino)methyl)benzyl)-N-(2-oxo-2-((2′-oxo-1,1′,2′,3-tetrahydrospiro[indene-2,3′-pyrrolo[2,3-b]pyridin]-5-yl)amino)ethyl)-1-(pyridazin-3-yl)piperidine-4-carboxamide], the IC50 is 49 nM.
With `CNCc1ccccc1CN(CC(=O)Nc1ccc2c(c1)C[C@@]1(C2)C(=O)Nc2ncccc21)C(=O)C1(C)CCN(c2ncccn2)CC1` [Example 60], the IC50 was 38 nM.
In the case of `CNCc1ccccc1CN(CC(=O)Nc1ccc2c(c1)C[C@@]1(C2)C(=O)Nc2ncccc21)C(=O)C1(C)CCN(c2ccncn2)CC1` [Example 61] it was 2.14 nM; in that of `CNCc1ccccc1CN(CC(=O)Nc1ccc2c(c1)C[C@@]1(C2)C(=O)Nc2ncccc21)C(=O)C1(C)CCN(c2ccccn2)CC1` [Example 62], 77.6 nM.
`CNCc1ccccc1CN(CC(=O)Nc1ccc2c(c1)C[C@@]1(C2)C(=O)Nc2ncccc21)C(=O)C1(C)CCN(c2ccccc2)CC1` [Example 63, (R)-4-Methyl-N-(2-((methylamino)methyl)benzyl)-N-(2-oxo-2-((2′-oxo-1,1′,2′,3-tetrahydrospiro[indene-2,3′-pyrrolo[2,3-b]pyridin]-5-yl)amino)ethyl)-1-phenylpiperidine-4-carboxamide]: the IC50 was 14.5 nM.
In the case of `CNCc1ccccc1CN(C(=O)C1(C)CCN(C(C)=O)CC1)[C@@H](C)C(=O)Nc1ccc2c(c1)C[C@@]1(C2)C(=O)Nc2ncccc21` [Example 66, 1-Acetyl-4-methyl-N-(2-((methylamino)methyl)benzyl)-N—((S)-1-oxo-1-(((R)-2′-oxo-1,1′,2′,3-tetrahydrospiro[indene-2,3′-pyrrolo[2,3-b]pyridin]-5-yl)amino)propan-2-yl)piperidine-4-carboxamide] it was 457 nM; in that of `CCC1(C(=O)N(CC(=O)Nc2ccc3c(c2)C[C@@]2(C3)C(=O)Nc3ncccc32)Cc2ccccc2CNC)CCNCC1` [Example 67, (R)-4-Ethyl-N-(2-((methylamino)methyl)benzyl)-N-(2-oxo-2-((2′-oxo-1,1′,2′,3-tetrahydrospiro[indene-2,3′-pyrrolo[2,3-b]pyridin]-5-yl)amino)ethyl)piperidine-4-carboxamide], 0.575 nM.
With `CCC1(C(=O)N(CC(=O)Nc2ccc3c(c2)C[C@@]2(C3)C(=O)Nc3ncccc32)Cc2ccccc2CNC)CCN(C(C)=O)CC1` [Example 68, (R)-1-Acetyl-4-ethyl-N-(2-((methylamino)methyl)benzyl)-N-(2-oxo-2-((2′-oxo-1,1′,2′,3-tetrahydrospiro[indene-2,3′-pyrrolo[2,3-b]pyridin]-5-yl)amino)ethyl)piperidine-4-carboxamide], the IC50 was 1.41 nM.
Consider `CCC1(C(=O)N(CC(=O)Nc2ccc3c(c2)C[C@@]2(C3)C(=O)Nc3ncccc32)Cc2ccccc2CNC)CCN(C(=O)C(C)(C)C)CC1` [Example 69, 1-(2,2-Dimethylpropanoyl)-4-ethyl-N-[[2-(methylaminomethyl)phenyl]methyl]-N-[2-oxo-2-[[(3R)-2-oxospiro[1H-pyrrolo[2,3-b]pyridine-3,2′-indane]-5′-yl]amino]ethyl]piperidine-4-carboxamide], for which the IC50 was 30.2 nM.
Consider `CCC1(C(=O)N(CC(=O)Nc2ccc3c(c2)C[C@@]2(C3)C(=O)Nc3ncccc32)Cc2ccccc2CNC)CCN(C(=O)c2ccn(C)n2)CC1` [Example 70, (R)-4-Ethyl-1-(1-methyl-1H-pyrazole-3-carbonyl)-N-(2-((methylamino)methyl)benzyl)-N-(2-oxo-2-((2′-oxo-1,1′,2′,3-tetrahydrospiro[indene-2,3′-pyrrolo[2,3-b]pyridin]-5-yl)amino)ethyl)piperidine-4-carboxamide], for which the IC50 was 2.24 nM.
Consider `CCC1(C(=O)N(CC(=O)Nc2ccc3c(c2)C[C@@]2(C3)C(=O)Nc3ncccc32)Cc2ccccc2CNC)CCN(C(=O)c2cc(C)n[nH]2)CC1` [Example 71, (R)-4-Ethyl-1-(3-methyl-1H-pyrazole-5-carbonyl)-N-(2-((methylamino)methyl)benzyl)-N-(2-oxo-2-((2′-oxo-1,1′,2′,3-tetrahydrospiro[indene-2,3′-pyrrolo[2,3-b]pyridin]-5-yl)amino)ethyl)piperidine-4-carboxamide], for which the IC50 was 8.51 nM.
In the case of `CCC1(C(=O)N(CC(=O)Nc2ccc3c(c2)C[C@@]2(C3)C(=O)Nc3ncccc32)Cc2ccccc2CNC)CCN(C(=O)C2CC2)CC1` [Example 72, (R)-1-(Cyclopropanecarbonyl)-4-ethyl-N-(2-((methylamino)methyl)benzyl)-N-(2-oxo-2-((2′-oxo-1,1′,2′,3-tetrahydrospiro[indene-2,3′-pyrrolo[2,3-b]pyridin]-5-yl)amino)ethyl)piperidine-4-carboxamide] it was 8.71 nM.
Consider `CCC1(C(=O)N(CC(=O)Nc2ccc3c(c2)C[C@@]2(C3)C(=O)Nc3ncccc32)Cc2ccccc2CNC)CCN(C(=O)C(C)C)CC1` [Example 73, (R)-4-Ethyl-1-isobutyryl-N-(2-((methylamino)methyl)benzyl)-N-(2-oxo-2-((2′-oxo-1,1′,2′,3-tetrahydrospiro[indene-2,3′-pyrrolo[2,3-b]pyridin]-5-yl)amino)ethyl)piperidine-4-carboxamide], for which the IC50 is 14.1 nM.
With `CCC1(C(=O)N(CC(=O)Nc2ccc3c(c2)C[C@@]2(C3)C(=O)Nc3ncccc32)Cc2ccccc2CNC)CCN(C(=O)COCCOCCOC)CC1` [Example 74, (R)-4-Ethyl-1-(2-(2-(2-methoxyethoxy)ethoxy)acetyl)-N-(2-((methylamino)methyl)benzyl)-N-(2-oxo-2-((2′-oxo-1,1′,2′,3-tetrahydrospiro[indene-2,3′-pyrrolo[2,3-b]pyridin]-5-yl)amino)ethyl)piperidine-4-carboxamide], the IC50 was 8.71 nM.
`CCC1(C(=O)N(CC(=O)Nc2ccc3c(c2)C[C@@]2(C3)C(=O)Nc3ncccc32)Cc2ccccc2CNC)CCN(C(=O)C2CCCC2)CC1` [Example 75, (R)-1-(Cyclopentanecarbonyl)-4-ethyl-N-(2-((methylamino)methyl)benzyl)-N-(2-oxo-2-((2′-oxo-1,1′,2′,3-tetrahydrospiro[indene-2,3′-pyrrolo[2,3-b]pyridin]-5-yl)amino)ethyl)piperidine-4-carboxamide]: the IC50 is 5.75 nM.
In the case of `CCC1(C(=O)N(CC(=O)Nc2ccc3c(c2)C[C@@]2(C3)C(=O)Nc3ncccc32)Cc2ccccc2CNC)CCN(C(=O)c2ccc(F)cn2)CC1` [Example 76, (R)-4-Ethyl-1-(5-fluoropicolinoyl)-N-(2-((methylamino)methyl)benzyl)-N-(2-oxo-2-((2′-oxo-1,1′,2′,3-tetrahydrospiro[indene-2,3′-pyrrolo[2,3-b]pyridin]-5-yl)amino)ethyl)piperidine-4-carboxamide] it was 37.2 nM.
